Measured values: PubChem BioAssay (NCI)
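All cell lines were grown in 96-well plates and treated with compound for 48 hours. TGI marks complete inhibition of growth.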 Where a SMILES comes first, the peptide text is derived from it. Bridges are numbered along the chain shown (N, C = ends). [ ]: non-standard residue; d: D form. The star is where a group is joined. ξ: configuration not given here. Chg = N[CH](C(=O)O)C1CCCCC1; Cbz = O=C(OCc1ccccc1)*; PhAc = O=C(Cc1ccccc1)*; OBn = c1ccc(CO*)cc1; ξP = O=C(O)C1CCCN1

Legend:
Assay in all cases: DTP human tumour cell line panel, 48 h
[1] = system: 786-0 renal
[2] = system: A498 renal
[3] = system: A549 NSCLC
[4] = system: ACHN renal
[5] = system: CAKI-1 renal
[6] = system: CCRF-CEM leukemia
[7] = system: COLO 205 colon
[8] = system: DU-145 prostate
[9] = system: EKVX NSCLC
[10] = system: HCC-2998 colon
[11] = system: HCT-116 colon
[12] = system: HCT-15 colon
[13] = system: HOP-62 NSCLC
[14] = system: HOP-92 NSCLC
[15] = system: HS 578T breast
[16] = system: HT29 colon
[17] = system: IGROV1 ovarian
[18] = system: K-562 leukemia
[19] = system: KM12 colon
[20] = system: LOX IMVI melanoma
[21] = system: M14 melanoma
[22] = system: MALME-3M melanoma
[23] = system: MCF7 breast
[24] = system: MDA-MB-231 breast
[25] = system: MDA-MB-435
[26] = system: MDA-N
[27] = system: MOLT-4 leukemia
[28] = system: NCI-H226 lung
[29] = system: NCI-H23 lung
[30] = system: NCI-H460 lung
[31] = system: NCI-H522 lung
[32] = system: NCI/ADR-RES ovarian
[33] = system: OVCAR-3 ovarian
[34] = system: OVCAR-4 ovarian
[35] = system: OVCAR-5 ovarian
[36] = system: OVCAR-8 ovarian
[37] = system: PC-3 prostate
[38] = system: RPMI-8226 leukemia
[39] = system: RXF 393 renal
[40] = system: SF-268 CNS
[41] = system: SF-295 CNS
[42] = system: SF-539 CNS
[43] = system: SK-MEL-2 melanoma
[44] = system: SK-MEL-28 melanoma
[45] = system: SK-MEL-5 melanoma
[46] = system: SK-OV-3 ovarian
[47] = system: SN12C renal
[48] = system: SNB-19 CNS
[49] = system: SNB-75 CNS
[50] = system: SR leukemia
[51] = system: SW-620 colon
[52] = system: T-47D breast
[53] = system: TK-10 renal
[54] = system: U251 CNS
[55] = system: UACC-257 melanoma
[56] = system: UACC-62 melanoma
[57] = system: UO-31 renal
[58] = system: HL-60(TB) leukemia

Q: Which results are given for Cc1[nH]n(-c2ncc(C#N)c(=O)[nH]2)c(=O)c1CCO?
A: TGI [1]: > 100 µM; TGI [2]: > 100 µM; TGI [3]: > 100 µM; TGI [4]: > 100 µM; TGI [5]: > 100 µM; TGI [6]: > 100 µM; TGI [7]: > 100 µM; TGI [8]: > 100 µM; TGI [9]: > 100 µM; TGI [10]: > 100 µM; TGI [11]: > 100 µM; TGI [12]: > 100 µM; TGI [13]: > 100 µM; TGI [14]: > 100 µM; TGI [15]: > 100 µM; TGI [16]: > 100 µM; TGI [17]: > 100 µM; TGI [18]: > 100 µM; TGI [19]: > 100 µM; TGI [20]: > 100 µM; TGI [21]: > 100 µM; TGI [22]: > 100 µM; TGI [23]: > 100 µM; TGI [24]: > 100 µM; TGI [25]: > 100 µM; TGI [26]: > 100 µM; TGI [27]: > 100 µM; TGI [28]: > 100 µM; TGI [29]: > 100 µM; TGI [30]: > 100 µM; TGI [31]: > 100 µM; TGI [32]: > 100 µM; TGI [33]: > 100 µM; TGI [34]: > 100 µM; TGI [35]: > 100 µM; TGI [36]: > 100 µM; TGI [37]: > 100 µM; TGI [38]: > 100 µM; TGI [39]: > 100 µM; TGI [40]: > 100 µM; TGI [41]: > 100 µM; TGI [42]: > 100 µM; TGI [43]: > 100 µM; TGI [44]: > 100 µM; TGI [45]: > 100 µM; TGI [46]: > 100 µM; TGI [47]: > 100 µM; TGI [48]: > 100 µM; TGI [49]: 99 µM; TGI [50]: > 100 µM; TGI [51]: > 100 µM; TGI [52]: > 100 µM; TGI [53]: > 100 µM; TGI [54]: > 100 µM; TGI [55]: > 100 µM; TGI [56]: > 100 µM; TGI [57]: > 100 µM

Q: What does the source list for O=C(Cc1ccccc1)N[C@@H]1COC(=O)C2CCCN2C(=O)[C@@H]2CCCN2C1=O (some centres not stated) (PhAc-[dS]-Pro-[ξP]; ester 1-C)?
A: TGI [1]: > 100 µM; TGI [2]: > 100 µM; TGI [3]: > 100 µM; TGI [4]: > 100 µM; TGI [5]: > 100 µM; TGI [6]: > 100 µM; TGI [7]: > 100 µM; TGI [8]: > 100 µM; TGI [9]: > 100 µM; TGI [10]: > 100 µM; TGI [11]: > 100 µM; TGI [12]: > 100 µM; TGI [58]: > 100 µM; TGI [13]: > 100 µM; TGI [14]: > 100 µM; TGI [15]: > 100 µM; TGI [16]: > 100 µM; TGI [17]: > 100 µM; TGI [19]: > 100 µM; TGI [20]: > 100 µM; TGI [21]: > 100 µM; TGI [22]: > 100 µM; TGI [23]: > 100 µM; TGI [24]: > 100 µM; TGI [25]: > 100 µM; TGI [26]: > 100 µM; TGI [27]: > 100 µM; TGI [28]: > 100 µM; TGI [29]: > 100 µM; TGI [30]: > 100 µM; TGI [32]: > 100 µM; TGI [33]: > 100 µM; TGI [34]: > 100 µM; TGI [35]: > 100 µM; TGI [36]: > 100 µM; TGI [37]: > 100 µM; TGI [39]: > 100 µM; TGI [40]: > 100 µM; TGI [41]: > 100 µM; TGI [42]: > 100 µM; TGI [43]: > 100 µM; TGI [44]: > 100 µM; TGI [45]: > 100 µM; TGI [46]: > 100 µM; TGI [47]: > 100 µM; TGI [48]: > 100 µM; TGI [49]: 4.79 µM; TGI [50]: > 100 µM; TGI [51]: > 100 µM; TGI [52]: > 100 µM; TGI [53]: > 100 µM; TGI [55]: > 100 µM; TGI [56]: > 100 µM

Q: Which results are given for COC(=O)C(NC(=O)C(CC(=O)OCc1ccccc1)NC(=O)OCc1ccccc1)C1CCCCC1 (configuration not stated) (Cbz-Asp(OBn)-[Chg]-OMe; configuration not given here)?
A: TGI [1]: > 100 µM; TGI [3]: > 100 µM; TGI [4]: > 100 µM; TGI [5]: > 100 µM; TGI [6]: > 100 µM; TGI [7]: > 100 µM; TGI [8]: > 100 µM; TGI [9]: > 100 µM; TGI [10]: > 100 µM; TGI [11]: > 100 µM; TGI [12]: > 100 µM; TGI [58]: > 100 µM; TGI [13]: > 100 µM; TGI [14]: > 100 µM; TGI [15]: 81.3 µM; TGI [16]: > 100 µM; TGI [17]: > 100 µM; TGI [18]: > 100 µM; TGI [19]: > 100 µM; TGI [20]: > 100 µM; TGI [21]: > 100 µM; TGI [22]: > 100 µM; TGI [23]: > 100 µM; TGI [24]: > 100 µM; TGI [25]: > 100 µM; TGI [26]: > 100 µM; TGI [27]: > 100 µM; TGI [28]: > 100 µM; TGI [29]: > 100 µM; TGI [30]: > 100 µM; TGI [31]: > 100 µM; TGI [32]: > 100 µM; TGI [33]: > 100 µM; TGI [34]: > 100 µM; TGI [35]: > 100 µM; TGI [36]: > 100 µM; TGI [37]: > 100 µM; TGI [38]: > 100 µM; TGI [39]: > 100 µM; TGI [40]: > 100 µM; TGI [41]: > 100 µM; TGI [42]: > 100 µM; TGI [43]: > 100 µM; TGI [44]: > 100 µM; TGI [45]: > 100 µM; TGI [46]: > 100 µM; TGI [47]: > 100 µM; TGI [48]: > 100 µM; TGI [49]: > 100 µM; TGI [50]: > 100 µM; TGI [51]: > 100 µM; TGI [52]: > 100 µM; TGI [53]: > 100 µM; TGI [54]: > 100 µM; TGI [55]: > 100 µM; TGI [56]: > 100 µM; TGI [57]: > 100 µM
